Source: ChEMBL document CHEMBL1158472, “Carbonic anhydrase-encoded dynamic constitutional libraries: toward the discovery of isozyme-specific inhibitors” (J Med Chem, 2009)
pKi: −log10 of the molar value.

Columns and labels:
Carbonic anhydrase 1 = Carbonic anhydrase 1 (Homo sapiens, UniProt P00915); test: Inhibition of human erythrocytes carbonic anhydrase 1 by CO2 hydration assay
Carbonic anhydrase 2 [1] = molecular target: T1, Carbonic anhydrase 2 (Homo sapiens, UniProt P00918); test: Inhibition of human erythrocytes carbonic anhydrase 2 by CO2 hydration assay
Carbonic anhydrase 2 [2] = molecular target: T1, Carbonic anhydrase 2; test: Binding affinity to human carbonic anhydrase 2

Carbonic anhydrase 1, sequence (P00915 whole entry): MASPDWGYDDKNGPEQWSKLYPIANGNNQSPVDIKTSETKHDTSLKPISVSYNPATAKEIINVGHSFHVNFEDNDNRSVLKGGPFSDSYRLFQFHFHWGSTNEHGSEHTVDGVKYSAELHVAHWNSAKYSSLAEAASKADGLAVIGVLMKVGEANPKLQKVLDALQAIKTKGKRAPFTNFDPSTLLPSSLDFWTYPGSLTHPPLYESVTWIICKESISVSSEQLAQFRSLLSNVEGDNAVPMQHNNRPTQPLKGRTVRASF

Row | pKi (Carbonic anhydrase 1) | pKi (Carbonic anhydrase 2 [1]) | pKi (Carbonic anhydrase 2 [2]) | SMILES
1 | < 4.00 | < 4.00 |  | O=C(O)c1cccc(/C=N/Cc2ccccc2)c1
2 |  |  | 3.34 | Cc1ccc(S(=O)(=O)O)cc1
3 | < 4.00 | < 4.00 |  | O=C(O)c1cccc(CNCc2ccccc2)c1
4 | < 4.00 | < 4.00 |  | Fc1ccccc1CNCc1ccccc1
5 |  | < 4.00 |  | O=S(=O)(O)c1ccc(/C=N/Cc2ccccc2)o1
6 | < 4.00 | < 4.00 |  | Fc1ccccc1/C=N/Cc1ccccc1
